Five compounds from ChEMBL document CHEMBL4414592, “Aryl-fluorosulfate-based Lysine Covalent Pan-Inhibitors of Apoptosis Protein (IAP) Antagonists with Cellular Efficacy” (J Med Chem, 2019) can be followed below.

Data set [1] is described as follows: Solubility in pH 7.5 aqueous buffer at 25 degC by 1H 1D NMR spectroscopy. In kind it is physicochemical.
Data set [2] can be described thus: Stability in mouse plasma assessed as half life at 200 uM at 37 degC incubated up to 120 mins by mass spectrometry. In kind it is ADME, cell-free. The conditions noted are these: 2 h.
Data set [3] has as its system SK-MEL-28. As to the kind of experiment: Induction of apoptosis in human SK-MEL-28 cells assessed as increase in caspase-3/7 activity at […] incubated for 36 hrs by IncuCyteS3 caspase-3/7 fluorescence-based apoptosis assay. In kind it is functional, cell-based.
Data set [4] concerns A549. As to the kind of experiment: Induction of apoptosis in human A549 cells assessed as increase in caspase-3/7 activity at […] incubated for 36 hrs by IncuCyteS3 caspase-3/7 fluorescence-based apoptosis assay. In kind it is functional, cell-based.
For data set [5], the system named is SK-MEL-28. As to the kind of experiment: Induction of apoptosis in human SK-MEL-28 cells assessed as increase in caspase-3/7 activity at […] incubated for 36 hrs in presence of 1 ng/mL TNFlpha by IncuCyteS3 caspase-3/7 fluorescence-based apoptosis assay. Format: functional, cell-based.
Data set [6] has as its system A549. As to the kind of experiment: Induction of apoptosis in human A549 cells assessed as increase in caspase-3/7 activity at […] incubated for 36 hrs in presence of 1 ng/mL TNFlpha by IncuCyteS3 caspase-3/7 fluorescence-based apoptosis assay. In kind it is functional, cell-based.
For data set [7], the system named is SK-MEL-28. As to the kind of experiment: Cytotoxicity in human SK-MEL-28 cells assessed as reduction in cell viability in presence of 1 ng/mL TNFlpha measured every 3 hrs for 4 days by IncuCyteS3 live-cell analysis system based assay. Format: functional.
Data set [8] concerns A549. As to the kind of experiment: Cytotoxicity in human A549 cells assessed as reduction in cell viability in presence of 1 ng/mL TNFlpha measured every 3 hrs for 4 days by IncuCyteS3 live-cell analysis system based assay. Format: functional.
Data set [9] in a line: Stability in aqueous buffer at 100 uM to 2 mM by 1H 1D NMR spectroscopy. In kind it is physicochemical.
Data set [10] concerns the target T1, Baculoviral IAP repeat-containing protein 3 (Homo sapiens, UniProt Q13489). Nature of the data set: Inhibition of N-terminal 6x-His-tagged recombinant human cIAP2-BIR3 (244 to 349 residues) expressed in Escherichia coli incubated for 2 hrs without 6 hrs pre-incubation with enzyme by biotinylated AVPI peptide based DELFIA.
The target in data set [11] is T1, Baculoviral IAP repeat-containing protein 3. Nature of the data set: Inhibition of N-terminal 6x-His-tagged recombinant human cIAP2-BIR3 (244 to 349 residues) expressed in Escherichia coli incubated for 2 hrs after 6 hrs pre-incubation with enzyme by biotinylated AVPI peptide based DELFIA.
The target of data set [12] is T2, E3 ubiquitin-protein ligase XIAP (Homo sapiens, UniProt P98170).
T2 sequence (P98170 whole entry): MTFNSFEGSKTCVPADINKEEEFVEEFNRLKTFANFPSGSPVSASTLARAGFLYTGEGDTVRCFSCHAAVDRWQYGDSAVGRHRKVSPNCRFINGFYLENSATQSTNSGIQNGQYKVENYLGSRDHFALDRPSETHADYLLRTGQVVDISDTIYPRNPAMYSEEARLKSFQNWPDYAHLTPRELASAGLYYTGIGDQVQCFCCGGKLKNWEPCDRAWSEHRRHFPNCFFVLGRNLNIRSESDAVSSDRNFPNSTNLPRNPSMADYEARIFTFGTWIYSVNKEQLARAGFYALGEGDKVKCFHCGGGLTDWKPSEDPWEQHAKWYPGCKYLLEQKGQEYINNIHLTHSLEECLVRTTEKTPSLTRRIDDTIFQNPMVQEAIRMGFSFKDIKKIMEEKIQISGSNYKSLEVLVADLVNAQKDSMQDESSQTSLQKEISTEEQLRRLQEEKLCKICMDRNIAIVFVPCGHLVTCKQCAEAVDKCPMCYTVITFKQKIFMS
Data set [13] addresses T2, E3 ubiquitin-protein ligase XIAP. This is another data set of the same source.
Data set [14] shares this target. This is another data set of the same source.
Data set [15] has the same target. This is another data set of the same source.
Data set [16] has as its target Baculoviral IAP repeat-containing protein 2 (Homo sapiens) (UniProt Q13490). Nature of the data set: Binding affinity to N-terminal 6x-His-tagged recombinant human cIAP1-BIR3 (258 to 363 residues) expressed in Escherichia coli assessed as increase in […] domain mass at protein-compound ratio of 1:10 incubated for 6 hrs at 25 degC by LC-MS analysis relative to control.

Activity calls are given as the source filed them. The calls are words filed in the database; no cut-off is given here.

T1 sequence (Q13489 whole entry, the tested form may be a part): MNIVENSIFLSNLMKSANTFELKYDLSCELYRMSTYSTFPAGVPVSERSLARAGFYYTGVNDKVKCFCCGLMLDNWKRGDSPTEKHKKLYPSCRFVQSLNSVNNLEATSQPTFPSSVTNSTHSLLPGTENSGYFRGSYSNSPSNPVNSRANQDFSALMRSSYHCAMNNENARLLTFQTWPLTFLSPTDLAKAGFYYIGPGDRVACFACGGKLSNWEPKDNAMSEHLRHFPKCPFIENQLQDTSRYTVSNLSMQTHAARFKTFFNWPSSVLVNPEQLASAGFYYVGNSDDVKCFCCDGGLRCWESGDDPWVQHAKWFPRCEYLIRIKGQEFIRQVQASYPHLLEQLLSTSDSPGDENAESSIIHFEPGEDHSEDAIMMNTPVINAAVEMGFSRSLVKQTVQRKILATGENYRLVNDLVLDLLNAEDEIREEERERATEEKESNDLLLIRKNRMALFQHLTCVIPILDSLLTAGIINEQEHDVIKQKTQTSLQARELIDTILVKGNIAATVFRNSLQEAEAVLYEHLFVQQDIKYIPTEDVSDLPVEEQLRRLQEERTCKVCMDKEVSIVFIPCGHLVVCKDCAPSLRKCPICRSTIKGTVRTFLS
Chain of Baculoviral IAP repeat-containing protein 2 (Homo sapiens) (Q13490 whole entry, the tested form may be a part): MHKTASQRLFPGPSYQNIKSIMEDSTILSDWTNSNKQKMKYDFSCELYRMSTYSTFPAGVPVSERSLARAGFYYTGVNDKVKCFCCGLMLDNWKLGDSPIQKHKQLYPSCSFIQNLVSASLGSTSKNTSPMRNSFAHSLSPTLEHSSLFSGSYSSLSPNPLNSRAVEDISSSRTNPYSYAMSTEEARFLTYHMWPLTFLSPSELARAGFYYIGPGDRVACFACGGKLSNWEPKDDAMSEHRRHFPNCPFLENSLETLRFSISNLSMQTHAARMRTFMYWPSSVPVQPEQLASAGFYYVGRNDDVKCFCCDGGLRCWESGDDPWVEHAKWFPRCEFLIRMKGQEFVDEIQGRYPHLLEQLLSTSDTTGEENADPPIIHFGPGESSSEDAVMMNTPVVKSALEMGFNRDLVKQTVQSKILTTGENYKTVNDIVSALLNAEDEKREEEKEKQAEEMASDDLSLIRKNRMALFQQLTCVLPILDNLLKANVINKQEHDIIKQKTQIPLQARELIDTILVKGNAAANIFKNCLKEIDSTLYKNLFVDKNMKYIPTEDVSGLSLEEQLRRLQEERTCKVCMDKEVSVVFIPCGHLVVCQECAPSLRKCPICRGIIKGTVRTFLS

Turning to `CN[C@@H](C)C(=O)NC(Cc1cc(C)c(C(F)(F)F)cc1F)C(=O)N1CCC[C@H]1C(=O)N[C@@H]1CCc2c(OS(=O)(=O)F)cccc21` (mixture of isomers), in data set [1], the solubility result was “<= 1 mM”. Also, the Stability entry in data set [2] was “Stable”. Moreover, the result in the data set with SK-MEL-28 [3] and in the data set with A549 [4] was inactive. In addition, the Activity entry in the data set with SK-MEL-28 [5], with A549 [6], in the data set with SK-MEL-28 [7] and in the data set on A549 [8] was “Dose-dependent effect” throughout.

On to `CN[C@@H](C)C(=O)N[C@H](C(=O)N1CCC[C@H]1c1nc(C(=O)c2ccc(F)cc2)cs1)C1CCCCC1` [LCL-161], for which, in data set [2], the Stability entry is “Stable”. Further, the result in the data set with SK-MEL-28 [3] and with A549 [4] was inactive. For the same compound, the Activity result in the data set on SK-MEL-28 [5], with A549 [6], in the data set with SK-MEL-28 [7] and with A549 [8] was “Dose-dependent effect” each time.

Regarding `CN[C@@H](C)C(=O)N[C@H](C(=O)N1CCC[C@H]1C(=O)N[C@@H]1CCc2c(OS(=O)(=O)F)cccc21)C1CCCCC1`, in data set [9], the Stability entry is recorded as “Stable”. Further, the solubility entry in [1] is on record as “<= 2 mM”. In addition, the result with SK-MEL-28 [3] and in the data set on A549 [4] was inactive. Further, the Activity result in the data set with SK-MEL-28 [5], in the data set on A549 [6], in the data set on SK-MEL-28 [7] and with A549 [8] was “Dose-dependent effect” each time.

A word on the IC50: it is the concentration that gives 50% inhibition. The term ΔTm denotes the change in melting temperature against a reference sample. Take `CN[C@@H](C)C(=O)N[C@H]1CN(C(=O)CC(C)C)CC[C@H]2CC[C@@H](C(=O)NC(c3ccccc3)c3ccccc3)N2C1=O` [XEVINAPANT]: the IC50 in data set [10] was found to be 44 nM; in data set [11], 133 nM; in [12], 42 nM; in data set [13], 47.8 nM. Moreover, the Stability entry in [2] is listed as “Stable”. Moreover, the outcome with SK-MEL-28 [3] and in the data set on A549 [4] was inactive. Also, the Activity entry with SK-MEL-28 [5], in the data set with A549 [6], in the data set on SK-MEL-28 [7] and in the data set on A549 [8] was “Dose-dependent effect” throughout. Further, the shift in melting temperature (ΔTm) was found to be 17 °C in [14] and 19 °C in data set [15].

Consider `CN[C@@H](C)C(=O)N[C@@H](Cc1ccc(OS(=O)(=O)F)cc1)C(=O)N1CCC[C@H]1C(=O)N[C@@H]1CCc2c(F)cccc21`, for which the outcome (in the data set on SK-MEL-28 [3]; with A549 [4]; in [16]) was inactive. The Activity entry in the data set with SK-MEL-28 [5], with A549 [6], in the data set on SK-MEL-28 [7] and with A549 [8] was “Dose-dependent effect” each time.
